{
  "source": "ChEMBL document CHEMBL4602647",
  "about": "“Protective effects of 10,11-dihydro-5H-dibenzo[b,f]azepine hydroxamates on vascular cognitive impairment” (Eur J Med Chem, 2020)",
  "key": {"[1]": {"target": "Histone deacetylase 2 (Homo sapiens, UniProt Q92769)", "sequence (Q92769 whole entry, the tested form may be a part)": "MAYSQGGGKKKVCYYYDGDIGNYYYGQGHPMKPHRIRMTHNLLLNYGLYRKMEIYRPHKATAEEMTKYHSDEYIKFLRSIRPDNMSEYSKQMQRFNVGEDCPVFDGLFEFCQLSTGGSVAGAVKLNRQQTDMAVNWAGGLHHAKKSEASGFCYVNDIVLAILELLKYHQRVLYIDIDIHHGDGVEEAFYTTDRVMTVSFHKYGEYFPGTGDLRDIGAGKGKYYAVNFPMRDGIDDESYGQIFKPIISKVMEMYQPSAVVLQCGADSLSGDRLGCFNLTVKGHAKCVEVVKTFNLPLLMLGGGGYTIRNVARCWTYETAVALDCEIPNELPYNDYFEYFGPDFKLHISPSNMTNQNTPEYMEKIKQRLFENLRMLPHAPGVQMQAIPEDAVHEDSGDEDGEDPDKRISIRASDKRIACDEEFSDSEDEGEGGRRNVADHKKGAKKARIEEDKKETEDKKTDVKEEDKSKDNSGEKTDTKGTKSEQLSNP", "experiment": "Inhibition of recombinant human C-terminal GST-tagged HDAC2 (1 to 488 residues) expressed in baculovirus infected sf21 cells using RHK-K(Ac)-AMC as substrate after 60 mins by fluorimetry assay", "conditions": "read-out: IC50"}, "[2]": {"target": "Histone deacetylase 4 (Homo sapiens, UniProt P56524)", "sequence (P56524 whole entry, the tested form may be a part)": "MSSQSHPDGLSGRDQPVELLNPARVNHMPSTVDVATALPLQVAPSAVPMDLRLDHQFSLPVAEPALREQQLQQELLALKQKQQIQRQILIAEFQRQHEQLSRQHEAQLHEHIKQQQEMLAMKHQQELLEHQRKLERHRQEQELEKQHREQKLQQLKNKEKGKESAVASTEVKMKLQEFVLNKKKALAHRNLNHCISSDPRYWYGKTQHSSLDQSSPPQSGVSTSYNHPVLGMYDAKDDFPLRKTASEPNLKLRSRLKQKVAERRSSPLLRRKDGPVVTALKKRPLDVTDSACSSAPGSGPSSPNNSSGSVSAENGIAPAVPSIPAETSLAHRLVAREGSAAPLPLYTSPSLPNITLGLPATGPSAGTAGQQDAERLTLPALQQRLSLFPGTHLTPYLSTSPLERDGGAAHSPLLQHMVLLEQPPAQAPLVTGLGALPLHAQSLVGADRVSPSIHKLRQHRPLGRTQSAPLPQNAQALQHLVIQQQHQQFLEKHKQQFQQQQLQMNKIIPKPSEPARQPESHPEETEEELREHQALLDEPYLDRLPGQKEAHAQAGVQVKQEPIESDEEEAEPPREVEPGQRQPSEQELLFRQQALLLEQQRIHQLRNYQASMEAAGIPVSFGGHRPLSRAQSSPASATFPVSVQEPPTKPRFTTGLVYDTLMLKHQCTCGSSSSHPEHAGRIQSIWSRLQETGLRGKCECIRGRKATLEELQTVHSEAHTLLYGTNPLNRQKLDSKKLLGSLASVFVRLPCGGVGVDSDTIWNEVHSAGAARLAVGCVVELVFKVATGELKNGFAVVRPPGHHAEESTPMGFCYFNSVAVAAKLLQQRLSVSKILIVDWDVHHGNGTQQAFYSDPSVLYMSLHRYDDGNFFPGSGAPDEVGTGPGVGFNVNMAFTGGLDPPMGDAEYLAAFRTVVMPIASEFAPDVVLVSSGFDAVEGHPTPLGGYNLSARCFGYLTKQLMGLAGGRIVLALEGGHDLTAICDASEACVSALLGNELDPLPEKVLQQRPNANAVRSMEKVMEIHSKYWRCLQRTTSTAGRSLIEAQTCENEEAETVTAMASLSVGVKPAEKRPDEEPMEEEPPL", "experiment": "Inhibition of recombinant N-terminal GST-tagged/C-terminal His-tagged human HDAC4 (627 to 1084 residues) expressed in baculovirus infected insect cells using RHK-K(Ac)-AMC as substrate after 60 mins by fluorimetry analysis"}, "[3]": {"experiment": "Half life in Sprague-Dawley rat at 2 mg/kg, iv measured up to 24 hrs", "type": "ADME, organism-based", "conditions": "in vivo"}, "[4]": {"experiment": "AUC (0 to infinity) in Sprague-Dawley rat at 2 mg/kg, iv measured up to 24 hrs", "type": "ADME, organism-based", "set-up": "dose 2 mg/kg, time infinity, route intravenous", "conditions": "in vivo"}, "[5]": {"target": "Histone deacetylase 9 (Homo sapiens, UniProt Q9UKV0)", "sequence (Q9UKV0 whole entry)": "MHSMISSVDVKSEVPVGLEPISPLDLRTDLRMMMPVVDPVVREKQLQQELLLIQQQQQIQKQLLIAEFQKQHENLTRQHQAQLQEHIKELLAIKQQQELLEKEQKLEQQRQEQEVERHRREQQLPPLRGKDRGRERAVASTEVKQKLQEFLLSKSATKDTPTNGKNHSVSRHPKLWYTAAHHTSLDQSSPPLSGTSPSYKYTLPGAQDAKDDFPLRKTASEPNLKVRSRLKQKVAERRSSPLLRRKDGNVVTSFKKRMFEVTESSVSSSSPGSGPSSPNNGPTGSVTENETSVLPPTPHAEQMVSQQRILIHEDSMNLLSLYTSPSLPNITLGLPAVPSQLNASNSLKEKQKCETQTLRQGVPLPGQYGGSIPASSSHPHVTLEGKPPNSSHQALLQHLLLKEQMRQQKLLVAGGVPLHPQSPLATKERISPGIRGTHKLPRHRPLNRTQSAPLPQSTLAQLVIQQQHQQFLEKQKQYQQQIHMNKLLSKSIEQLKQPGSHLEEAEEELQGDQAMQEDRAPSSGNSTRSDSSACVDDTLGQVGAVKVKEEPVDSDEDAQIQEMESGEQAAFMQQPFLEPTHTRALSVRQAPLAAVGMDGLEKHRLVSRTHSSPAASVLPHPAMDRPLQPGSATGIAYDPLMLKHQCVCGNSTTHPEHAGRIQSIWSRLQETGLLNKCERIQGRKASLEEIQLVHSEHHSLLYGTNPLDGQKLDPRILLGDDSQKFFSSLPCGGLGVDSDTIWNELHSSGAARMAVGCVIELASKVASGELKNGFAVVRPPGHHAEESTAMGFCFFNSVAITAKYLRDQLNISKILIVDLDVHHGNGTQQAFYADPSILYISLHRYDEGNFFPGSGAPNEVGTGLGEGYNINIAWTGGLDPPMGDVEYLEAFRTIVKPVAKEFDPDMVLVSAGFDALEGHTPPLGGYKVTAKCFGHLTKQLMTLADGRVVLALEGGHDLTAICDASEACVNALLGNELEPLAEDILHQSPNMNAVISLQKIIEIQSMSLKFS", "experiment": "Inhibition of human HDAC9 using fluorogenic Boc-Lys(trifluoroacetyl)-AMC as substrate by fluorescence based analysis"}, "[6]": {"target": "Histone deacetylase 5 (Homo sapiens, UniProt Q9UQL6)", "sequence (Q9UQL6 whole entry, the tested form may be a part)": "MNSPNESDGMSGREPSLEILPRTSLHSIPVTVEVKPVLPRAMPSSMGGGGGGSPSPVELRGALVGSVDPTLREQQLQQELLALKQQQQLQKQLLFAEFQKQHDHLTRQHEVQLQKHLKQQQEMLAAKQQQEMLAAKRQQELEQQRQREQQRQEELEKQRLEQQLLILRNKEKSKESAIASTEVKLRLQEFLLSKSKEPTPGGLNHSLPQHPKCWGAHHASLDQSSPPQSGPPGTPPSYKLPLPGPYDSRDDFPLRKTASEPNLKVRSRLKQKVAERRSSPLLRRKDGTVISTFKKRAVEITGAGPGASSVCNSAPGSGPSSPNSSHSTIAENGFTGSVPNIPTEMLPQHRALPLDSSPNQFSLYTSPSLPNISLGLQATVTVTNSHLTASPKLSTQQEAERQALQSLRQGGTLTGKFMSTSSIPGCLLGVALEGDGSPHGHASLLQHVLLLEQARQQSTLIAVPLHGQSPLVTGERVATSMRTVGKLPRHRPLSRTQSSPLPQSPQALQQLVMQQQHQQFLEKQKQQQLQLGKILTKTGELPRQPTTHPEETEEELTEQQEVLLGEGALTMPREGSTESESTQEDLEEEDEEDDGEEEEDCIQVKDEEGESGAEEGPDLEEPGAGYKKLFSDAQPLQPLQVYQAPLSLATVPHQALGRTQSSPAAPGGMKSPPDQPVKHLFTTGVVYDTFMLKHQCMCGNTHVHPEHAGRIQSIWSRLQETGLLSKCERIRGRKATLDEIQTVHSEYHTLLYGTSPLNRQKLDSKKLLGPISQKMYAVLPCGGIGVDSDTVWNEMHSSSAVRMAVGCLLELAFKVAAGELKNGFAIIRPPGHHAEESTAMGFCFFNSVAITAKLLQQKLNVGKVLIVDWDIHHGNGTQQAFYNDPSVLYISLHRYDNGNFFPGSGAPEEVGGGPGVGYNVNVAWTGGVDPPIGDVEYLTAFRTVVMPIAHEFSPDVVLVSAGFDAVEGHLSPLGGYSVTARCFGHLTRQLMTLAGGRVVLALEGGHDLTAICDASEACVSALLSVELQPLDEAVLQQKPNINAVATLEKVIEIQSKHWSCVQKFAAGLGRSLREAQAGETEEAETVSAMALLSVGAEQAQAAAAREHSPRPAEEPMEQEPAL", "experiment": "Inhibition of recombinant human C-terminal His-tagged HDAC5 (657 to 1123 residues) expressed in baculovirus infected insect cells using Boc-K(Ac)-AMC as substrate after 60 mins by fluorimetry analysis"}, "[7]": {"target": "Histone deacetylase 1 (Homo sapiens, UniProt Q13547)", "sequence (Q13547 whole entry, the tested form may be a part)": "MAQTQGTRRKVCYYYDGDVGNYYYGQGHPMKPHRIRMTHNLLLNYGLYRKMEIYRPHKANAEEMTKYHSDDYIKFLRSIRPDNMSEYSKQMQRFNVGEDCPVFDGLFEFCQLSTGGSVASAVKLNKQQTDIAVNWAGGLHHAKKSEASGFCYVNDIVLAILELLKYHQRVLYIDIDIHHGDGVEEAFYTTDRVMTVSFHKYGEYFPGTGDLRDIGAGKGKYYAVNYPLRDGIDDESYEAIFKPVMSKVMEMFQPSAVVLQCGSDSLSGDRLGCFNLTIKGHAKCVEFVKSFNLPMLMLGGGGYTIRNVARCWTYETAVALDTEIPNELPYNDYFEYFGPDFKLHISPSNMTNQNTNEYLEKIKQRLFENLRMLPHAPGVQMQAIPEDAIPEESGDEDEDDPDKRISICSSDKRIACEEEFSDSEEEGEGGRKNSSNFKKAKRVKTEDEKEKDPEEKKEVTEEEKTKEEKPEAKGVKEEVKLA", "experiment": "Inhibition of recombinant full length human C-terminal FLAG/His-tagged HDAC1 (1 to 482 residues) expressed in baculovirus infected Sf21 cells using RHK-K(Ac)-AMC as substrate measured after 60 mins by fluorimetric assay", "conditions": "read-out: IC50"}, "[8]": {"experiment": "Volume of distribution at steady state in Sprague-Dawley rat at 2 mg/kg, iv measured up to 24 hrs", "type": "ADME, organism-based", "conditions": "in vivo, read-out: Vdss"}, "[9]": {"experiment": "AUC (0 to infinity) in Sprague-Dawley rat at 10 mg/kg, po measured up to 24 hrs", "type": "ADME, organism-based", "set-up": "dose 10 mg/kg, time infinity, route oral", "conditions": "in vivo"}, "[10]": {"experiment": "Half life in Sprague-Dawley rat at 10 mg/kg, po measured up to 24 hrs", "type": "ADME, organism-based", "conditions": "in vivo"}, "[11]": {"experiment": "Tmax in Sprague-Dawley rat at 10 mg/kg, po measured up to 24 hrs", "type": "ADME, organism-based", "conditions": "in vivo"}, "[12]": {"experiment": "Microsomal stability in rat liver microsomes assessed as parent compound remaining measured after 30 mins", "type": "ADME, Microsome", "conditions": "read-out: Stability"}, "[13]": {"experiment": "Microsomal stability in human liver microsomes assessed as parent compound remaining measured after 30 mins", "type": "ADME, Microsome", "conditions": "read-out: Stability"}, "[14]": {"experiment": "Aqueous solubility of compound in water incubated at 37 degree C by LC-MS analysis", "type": "physicochemical"}, "[15]": {"experiment": "Aqueous solubility of compound in ethanol incubated at 37 degree C by LC-MS analysis", "type": "physicochemical"}, "[16]": {"tested_on": "SH-SY5Y", "experiment": "Neuroprotective activity against OGD-induced hypoxic injury in human SH-SY5Y cells assessed as LDH release at 5 uM incubated under oxygen/glucose deprivation-induced hypoxic medium by LDH assay (reference value: 27.47 +/- 3.23 %)", "type": "functional"}, "[17]": {"tested_on": "Mus musculus", "experiment": "Anti-vascular cognitive impairment activity against bilateral common carotid artery occlusion-induced vascular dementia C57BL/6J mouse model assessed as improvement in short-term non-spatial working memory by measuring increase in novel object recognition at 25 mg/kg, ip administered post surgery measured after 1 to 3 months by novel object recognition test", "type": "functional, organism-based"}, "[18]": {"tested_on": "Mus musculus", "experiment": "Anti-vascular cognitive impairment activity against bilateral common carotid artery occlusion-induced vascular dementia C57BL/6J mouse model assessed as reversal of hippocampal atrophy by measuring increase in ratio of size of hippocampus to lateral ventricle at 25 mg/kg, ip administered post surgery measured after 3 months by 7T-MRI analysis", "type": "functional, organism-based"}, "[19]": {"tested_on": "Mus musculus", "experiment": "Anti-vascular cognitive impairment activity against bilateral common carotid artery occlusion-induced vascular dementia C57BL/6J mouse model assessed as ratio of cerebral blood flow in right parietal area at 25 mg/kg, ip administered post surgery measured after 3 months (reference value: 0.761 +/- 0.037)", "type": "functional"}, "[20]": {"tested_on": "Mus musculus", "experiment": "Anti-vascular cognitive impairment activity against bilateral common carotid artery occlusion-induced vascular dementia C57BL/6J mouse model assessed as ratio of cerebral blood flow in left parietal area at 25 mg/kg, ip administered post surgery measured after 3 months(reference value: 0.792 +/- 0.029)", "type": "functional"}, "[21]": {"tested_on": "Mus musculus", "experiment": "Upregulation of acetylated H3K14 protein expression in right side cortex of bilateral common carotid artery occlusion-induced vascular dementia C57BL/6J mouse model at 25 mg/kg, ip measured after 3 months by Western blot analysis", "type": "functional, organism-based"}, "[22]": {"tested_on": "Mus musculus", "experiment": "Upregulation of acetylated H3K14 protein expression in left side cortex of bilateral common carotid artery occlusion-induced vascular dementia C57BL/6J mouse model at 25 mg/kg, ip measured after 3 months by Western blot analysis", "type": "functional, organism-based"}, "[23]": {"tested_on": "Mus musculus", "experiment": "Upregulation of acetylated H4K5 protein expression in right side cortex of bilateral common carotid artery occlusion-induced vascular dementia C57BL/6J mouse model at 25 mg/kg, ip measured after 3 months by Western blot analysis", "type": "functional, organism-based"}, "[24]": {"tested_on": "Mus musculus", "experiment": "Upregulation of acetylated H3K14 protein expression in hippocampus of bilateral common carotid artery occlusion-induced vascular dementia C57BL/6J mouse model at 25 mg/kg, ip measured after 3 months by Western blot analysis", "type": "functional, organism-based"}, "[25]": {"tested_on": "Mus musculus", "experiment": "Upregulation of acetylated H4K5 protein expression in hippocampus of bilateral common carotid artery occlusion-induced vascular dementia C57BL/6J mouse model at 25 mg/kg, ip measured after 3 months by Western blot analysis", "type": "functional, organism-based"}, "[26]": {"tested_on": "Mus musculus", "experiment": "Anti-vascular cognitive impairment activity against bilateral common carotid artery occlusion-induced vascular dementia C57BL/6J mouse model assessed as reduction in cerebral blood flow at 25 mg/kg, ip administered post surgery measured after 3 months relative to sham-operated control", "type": "functional", "set-up": "scale not given: the % may be the effect or the level left"}, "[27]": {"tested_on": "Mus musculus", "experiment": "Anti-vascular cognitive impairment activity against bilateral common carotid artery occlusion-induced vascular dementia C57BL/6J mouse model assessed as reversal of hippocampal atrophy by measuring increase in hippocampal volume at 25 mg/kg, ip administered post surgery measured after 3 months by 7T-MRI analysis", "type": "functional, organism-based"}},
  "note": "The source made the active and inactive calls. No cut-off for these calls is given here.",
  "data": [
    {"smiles": "O=C(/C=C/c1ccc(CNCCCN2c3ccccc3CCc3ccc(Cl)cc32)cc1)NO", "values": [
      {"measurement": "IC50", "setting": "[1]", "value": 6.62, "unit": "µM"},
      {"measurement": "IC50", "setting": "[2]", "value": "Not Active"},
      {"measurement": "half-life", "setting": "[3]", "value": 17.2, "unit": "h"},
      {"measurement": "AUC(0-inf)", "setting": "[4]", "value": 1850, "unit": "ng·h/mL"},
      {"measurement": "IC50", "setting": "[5]", "value": "Not Active"},
      {"measurement": "IC50", "setting": "[6]", "value": 6.27, "unit": "µM"},
      {"measurement": "IC50", "setting": "[7]", "value": 3.82, "unit": "µM"},
      {"measurement": "Vd", "setting": "[8]", "value": 13.8, "unit": "L/kg"},
      {"measurement": "AUC(0-inf)", "setting": "[9]", "value": 166, "unit": "ng·h/mL"},
      {"measurement": "half-life", "setting": "[10]", "value": 10.9, "unit": "h"},
      {"measurement": "Tmax", "setting": "[11]", "value": 3.5, "unit": "h"},
      {"measurement": "remaining at 0.5 h", "setting": "[12]", "value": 37.4, "unit": "%"},
      {"measurement": "remaining at 0.5 h", "setting": "[13]", "value": 81.5, "unit": "%"},
      {"measurement": "solubility", "setting": "[14]", "value": "< 1", "unit": "µg/mL"},
      {"measurement": "solubility", "setting": "[15]", "value": 6.58, "unit": "µg/mL"},
      {"measurement": "Activity", "setting": "[16]", "value": 17.73, "unit": "%"},
      {"measurement": "Activity", "setting": "[17]", "value": "Active"},
      {"measurement": "Activity", "setting": "[18]", "value": "Active"},
      {"measurement": "Ratio", "setting": "[19]", "value": 0.923},
      {"measurement": "Ratio", "setting": "[20]", "value": 0.896},
      {"measurement": "Activity", "setting": "[21]", "value": "Active"},
      {"measurement": "Activity", "setting": "[22]", "value": "Active"},
      {"measurement": "Activity", "setting": "[23]", "value": "Active"},
      {"measurement": "Activity", "setting": "[24]", "value": "Active"},
      {"measurement": "Activity", "setting": "[25]", "value": "Active"},
      {"measurement": "Activity", "setting": "[26]", "value": "89 - 92%"},
      {"measurement": "Activity", "setting": "[27]", "value": "Active"}
    ]}
  ]
}
